# Assays:
# hDAT [1] = target: T1, hDAT (Homo sapiens, UniProt Q01959); conditions: [3H]-win35,428, HEK293 cell line, read-out: Ki values, DAT binding
# T1 construct: expressed in transfected cells
# Procedure: Membranes were prepared from HEK293 cells stably expressing hSERT, hNET, or hDAT as described previously. Briefly, [^3H]-citalopram (1 nM), [^3H]-nisoxetine (2 nM), or [^3H]-WIN35,428 (2 nM) was used to label human 5-HT, NE, or DA transporters, respectively.
# (§1) All data for inhibition curves were analysed by nonlinear regression using Prism software (GraphPad Software Inc., San Diego, CA) to determine IC50 values. For the microdialysis experiments, two-way repeated-measures ANOVA followed by Tukey’s test was used to compare the percentage increase over baseline between groups, time and treatment as independent factors, and time as the repeated factor.
# hDAT [2] = target: T1, hDAT; assay type: cell-based; conditions: HEK293 cell line, read-out: IC50 values, uptake of [3H]-DA (DAT)
# Procedure: (§2) The uptake of 5-HT, NE and DA into HEK293 cells stably expressing human transporters was determined using methods previously described with slight modifications. Briefly, the culture medium was removed from cells, and the cells were washed once with phosphate-buffered saline. Krebs-Ringers-HEPES (KRH) assay buffer (100 μL/well, containing 120 mM NaCl, 4.7 mM KCl, 2.2 mM CaCl2, 1.2 mM MgSO4, 1.2 mM […], 10 mM HEPES, pH 7.4) was then added. Various concentrations of drugs were administered to cells in a 24-well plate. The uptake was initiated by the addition of [^3H]-5-HT (50 nM), [^3H]-NE (80 nM), or [^3H]-DA (50 nM). Uptake was terminated by five washes using cold KRH assay buffer after 10-min incubation at 37 °C. The cells were solubilised using 400 μL of scintillation fluid and counted using a Packard Top Count scintillation counter.
# as §1
# hSERT = target: T2, hSERT (Homo sapiens, UniProt P31645); assay type: cell-based; conditions: HEK293 cell line, read-out: IC50 values, uptake of [3H]-5-HT (SERT)
# T2 construct: expressed in transfected cells
# Procedure: as §2, §1
# hNET = target: T3, hNET (Homo sapiens, UniProt P23975); experiment: [3H]-NE uptake in transporter-transfected HEK293 cells; assay type: cell-based; conditions: HEK293 cell line, read-out: IC50 values, uptake of [3H]-NE (NET)
# T3 construct: expressed in transfected cells
# Procedure: as §2, §1
# 5-HT5A = 5-HT5A (Homo sapiens, UniProt P47898); experiment: CNS receptor binding, 5-HT5A; conditions: HEK293 cell line, [3H]-LSD(1)
# Procedure: (§3) Albiflorin (10 μM) was tested for numerous other potential binding targets by using standard receptor binding procedures. The tested targets included the following receptors: D1, D2, D3, D4, D5, 5-HT1A, 5-HT1B, 5-HT1D, 5-HT2a, 5-HT2C, 5-HT3, 5-HT5A, 5-HT6, 5-HT7, α1A, α1B, α2A, β1, M1, M2, M3, M4, M5, μ, κ, δ, A1, A2A, H1, H2, H3, H4.
# 5-HT6 = 5-HT6 (Homo sapiens, UniProt P50406); experiment: CNS receptor binding, 5-HT6; conditions: HEK293 cell line, [3H]-LSD(1)
# Procedure: as §3
# 5-HT7 = 5-HT7 (Homo sapiens, UniProt P34969); experiment: CNS receptor binding, 5-HT7; conditions: HEK293 cell line, [3H]-LSD(4)
# Procedure: as §3
# α2A = α2A (Rattus norvegicus, UniProt P22909); experiment: CNS receptor binding, NE receptor α2A; conditions: Rat Cortex, [3H]-clonidine(2)
# Procedure: as §3
# β1 = β1 (Homo sapiens, UniProt P08588); experiment: CNS receptor binding, NE receptor β1; conditions: HEK293 cell line, [3H]-DHA(1)
# Procedure: as §3
# M3 = M3 (Homo sapiens, UniProt P20309); experiment: CNS receptor binding, muscarinic M3; conditions: CHO cell line, [3H]-NMS(1)
# Procedure: as §3
# μ = μ (Homo sapiens, UniProt P35372); experiment: CNS receptor binding, opioid μ; conditions: CHO cell line, [3H]-dipnorphine(1)
# Procedure: as §3
# H4 = H4 (Homo sapiens, UniProt Q9H3N8); experiment: CNS receptor binding, histamine H4; conditions: CHO cell line, [3H]-histamine(1)
# Procedure: as §3
# hypothalamic 5-HT levels = experiment: In vivo microdialysis, extracellular 5-HT; parameters: species or system rats
# Procedure: (§4) The effect of albiflorin on extracellular monoamine levels in […] was determined using methods previously described. Microdialysis probes (CMA Microdialysis) with an active membrane surface of 2 mm were perfused with artificial cerebrospinal fluid (125 mM NaCl, 3 mM KCl, 0.75 mM MgSO4 and 1.2 mM CaCl2, pH 7.4) in situ for at least 18 h before experimentation. The microdialysis probe was then implanted via the guide cannula into the hypothalamus and perfused with artificial cerebral spinal fluid at a flow rate of 1 μL/min. A 3-h stabilisation period was allowed after probe implantation, and dialysate sampling was conducted according to previously described methods. […] All subsequent values were expressed as a percentage of the mean preinjection value (i.e., percentage of baseline). […] For a minimum of 3 h after albiflorin administration, dialysis samples were collected every 20 min and analysed to determine the levels of NE, 5-HT and DA. […] A 20-μL sample from the hypothalamus was analysed for 5-HT, NE and DA content using methods described previously. […] External standard curves were used to quantify the amounts of NE, 5-HT and DA in each sample, which was calculated using the area under the curve.
# (§5) All data for inhibition curves were analysed by nonlinear regression using Prism software (GraphPad Software Inc., San Diego, CA) to determine IC50 values. […]
# [3] = system: DA levels in the hypothalamus; experiment: In vivo microdialysis, extracellular DA; conditions: oral, 3.5, 7.0 and 14.0 mg/kg, rats
# Procedure: as §4, §5
# [4] = read-out: IC50 values for albiflorin
# Chain of 5-HT5A (P47898 whole entry): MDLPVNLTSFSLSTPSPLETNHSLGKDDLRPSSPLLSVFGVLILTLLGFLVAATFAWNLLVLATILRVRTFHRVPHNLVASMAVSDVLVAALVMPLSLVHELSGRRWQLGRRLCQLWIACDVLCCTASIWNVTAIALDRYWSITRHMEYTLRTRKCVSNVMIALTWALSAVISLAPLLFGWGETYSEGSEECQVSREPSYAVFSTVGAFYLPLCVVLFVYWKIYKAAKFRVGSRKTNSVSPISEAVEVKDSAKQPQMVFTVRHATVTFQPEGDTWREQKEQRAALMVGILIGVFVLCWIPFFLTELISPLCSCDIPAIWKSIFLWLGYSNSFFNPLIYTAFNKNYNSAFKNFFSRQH
# Chain of 5-HT7 (P34969 whole entry): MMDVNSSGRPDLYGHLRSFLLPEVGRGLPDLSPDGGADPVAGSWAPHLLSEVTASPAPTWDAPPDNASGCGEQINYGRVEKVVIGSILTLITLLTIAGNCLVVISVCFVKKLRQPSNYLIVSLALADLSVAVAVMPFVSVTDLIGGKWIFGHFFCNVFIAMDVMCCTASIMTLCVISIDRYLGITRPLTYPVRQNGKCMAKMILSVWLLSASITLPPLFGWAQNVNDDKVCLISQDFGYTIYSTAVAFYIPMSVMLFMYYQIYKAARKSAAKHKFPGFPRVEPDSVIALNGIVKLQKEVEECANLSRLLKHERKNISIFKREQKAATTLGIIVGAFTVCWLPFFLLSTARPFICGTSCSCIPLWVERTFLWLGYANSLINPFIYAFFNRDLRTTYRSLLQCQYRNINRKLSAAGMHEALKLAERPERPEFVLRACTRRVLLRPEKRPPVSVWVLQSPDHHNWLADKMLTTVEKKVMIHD
# Chain of 5-HT6 (P50406 whole entry): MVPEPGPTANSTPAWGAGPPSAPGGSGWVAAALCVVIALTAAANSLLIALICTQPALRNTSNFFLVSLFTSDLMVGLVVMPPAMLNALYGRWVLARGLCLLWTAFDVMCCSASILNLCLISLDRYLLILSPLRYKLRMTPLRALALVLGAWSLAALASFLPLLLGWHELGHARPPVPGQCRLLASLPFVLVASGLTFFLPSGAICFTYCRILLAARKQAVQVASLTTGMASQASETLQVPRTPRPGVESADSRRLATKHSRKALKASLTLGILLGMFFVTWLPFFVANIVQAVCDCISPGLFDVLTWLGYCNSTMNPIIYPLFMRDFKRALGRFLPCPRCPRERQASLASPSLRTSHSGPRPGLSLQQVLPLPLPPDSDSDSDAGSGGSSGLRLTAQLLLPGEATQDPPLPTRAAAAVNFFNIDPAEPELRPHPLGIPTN
# Chain of α2A (P22909 whole entry): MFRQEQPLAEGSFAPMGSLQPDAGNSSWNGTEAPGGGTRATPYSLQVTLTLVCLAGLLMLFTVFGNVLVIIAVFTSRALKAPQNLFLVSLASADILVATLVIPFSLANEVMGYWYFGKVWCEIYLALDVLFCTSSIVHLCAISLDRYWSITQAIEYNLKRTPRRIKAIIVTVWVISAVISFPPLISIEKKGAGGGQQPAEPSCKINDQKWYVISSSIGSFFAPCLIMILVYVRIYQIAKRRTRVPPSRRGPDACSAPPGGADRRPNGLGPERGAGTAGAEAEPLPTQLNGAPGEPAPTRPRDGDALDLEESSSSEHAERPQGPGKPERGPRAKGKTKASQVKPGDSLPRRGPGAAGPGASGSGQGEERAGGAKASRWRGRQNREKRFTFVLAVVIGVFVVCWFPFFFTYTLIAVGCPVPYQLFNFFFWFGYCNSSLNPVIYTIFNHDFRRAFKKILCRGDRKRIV
# Chain of μ (P35372 whole entry): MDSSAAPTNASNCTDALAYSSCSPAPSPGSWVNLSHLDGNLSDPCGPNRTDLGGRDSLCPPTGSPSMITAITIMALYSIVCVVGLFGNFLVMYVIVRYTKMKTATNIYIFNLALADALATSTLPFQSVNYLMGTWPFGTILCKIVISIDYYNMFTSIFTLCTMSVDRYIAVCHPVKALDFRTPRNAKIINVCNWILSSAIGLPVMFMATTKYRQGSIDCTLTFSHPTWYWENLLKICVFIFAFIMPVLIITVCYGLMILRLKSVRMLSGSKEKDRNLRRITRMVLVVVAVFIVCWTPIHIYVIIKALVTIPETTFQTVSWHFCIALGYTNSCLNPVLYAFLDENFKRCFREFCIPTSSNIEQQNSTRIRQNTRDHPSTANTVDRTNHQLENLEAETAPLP
# Chain of β1 (P08588 whole entry): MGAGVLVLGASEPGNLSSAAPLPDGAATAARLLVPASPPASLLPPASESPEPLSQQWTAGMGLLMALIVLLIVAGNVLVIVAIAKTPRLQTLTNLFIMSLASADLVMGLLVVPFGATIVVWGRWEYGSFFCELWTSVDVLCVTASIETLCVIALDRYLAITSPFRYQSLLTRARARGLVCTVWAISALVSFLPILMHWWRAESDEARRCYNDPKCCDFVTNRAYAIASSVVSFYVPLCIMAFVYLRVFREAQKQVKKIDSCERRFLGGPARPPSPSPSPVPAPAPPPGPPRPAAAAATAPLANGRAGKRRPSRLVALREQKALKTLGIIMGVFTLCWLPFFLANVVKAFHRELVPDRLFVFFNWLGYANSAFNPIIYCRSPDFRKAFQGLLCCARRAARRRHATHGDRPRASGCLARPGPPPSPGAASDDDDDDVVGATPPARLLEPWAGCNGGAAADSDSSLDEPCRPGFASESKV
# T1 sequence (Q01959 whole entry): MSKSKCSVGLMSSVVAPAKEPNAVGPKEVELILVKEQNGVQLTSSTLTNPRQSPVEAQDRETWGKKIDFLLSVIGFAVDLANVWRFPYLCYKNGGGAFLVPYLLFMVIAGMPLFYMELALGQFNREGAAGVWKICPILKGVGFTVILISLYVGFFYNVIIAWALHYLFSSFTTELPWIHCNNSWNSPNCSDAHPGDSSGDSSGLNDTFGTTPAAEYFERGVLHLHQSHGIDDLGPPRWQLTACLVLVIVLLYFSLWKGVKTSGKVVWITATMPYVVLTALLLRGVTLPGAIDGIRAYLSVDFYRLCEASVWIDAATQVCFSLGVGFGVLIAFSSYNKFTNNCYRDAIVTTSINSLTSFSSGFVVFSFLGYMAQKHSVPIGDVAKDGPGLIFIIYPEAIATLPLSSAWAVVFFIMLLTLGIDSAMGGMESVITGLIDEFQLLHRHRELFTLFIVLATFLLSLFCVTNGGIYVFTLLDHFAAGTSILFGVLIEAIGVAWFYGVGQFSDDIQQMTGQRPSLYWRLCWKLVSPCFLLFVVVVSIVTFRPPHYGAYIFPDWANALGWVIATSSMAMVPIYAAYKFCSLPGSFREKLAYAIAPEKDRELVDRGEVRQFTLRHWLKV
# Chain of M3 (P20309 whole entry): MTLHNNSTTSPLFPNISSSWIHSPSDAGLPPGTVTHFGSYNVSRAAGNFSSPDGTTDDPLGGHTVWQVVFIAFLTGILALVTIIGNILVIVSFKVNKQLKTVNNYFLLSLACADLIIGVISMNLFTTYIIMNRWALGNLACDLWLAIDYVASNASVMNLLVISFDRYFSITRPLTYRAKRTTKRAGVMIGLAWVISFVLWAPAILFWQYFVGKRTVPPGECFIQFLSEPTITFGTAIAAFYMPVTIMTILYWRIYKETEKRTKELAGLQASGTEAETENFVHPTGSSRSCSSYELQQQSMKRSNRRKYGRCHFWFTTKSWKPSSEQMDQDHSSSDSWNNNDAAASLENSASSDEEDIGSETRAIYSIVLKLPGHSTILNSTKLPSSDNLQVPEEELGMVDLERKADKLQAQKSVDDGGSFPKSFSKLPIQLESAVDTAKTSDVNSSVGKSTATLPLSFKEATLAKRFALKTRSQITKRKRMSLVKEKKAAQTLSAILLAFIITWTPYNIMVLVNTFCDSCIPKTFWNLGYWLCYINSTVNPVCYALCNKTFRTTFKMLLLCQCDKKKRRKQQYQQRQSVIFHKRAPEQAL
# Chain of H4 (Q9H3N8 whole entry): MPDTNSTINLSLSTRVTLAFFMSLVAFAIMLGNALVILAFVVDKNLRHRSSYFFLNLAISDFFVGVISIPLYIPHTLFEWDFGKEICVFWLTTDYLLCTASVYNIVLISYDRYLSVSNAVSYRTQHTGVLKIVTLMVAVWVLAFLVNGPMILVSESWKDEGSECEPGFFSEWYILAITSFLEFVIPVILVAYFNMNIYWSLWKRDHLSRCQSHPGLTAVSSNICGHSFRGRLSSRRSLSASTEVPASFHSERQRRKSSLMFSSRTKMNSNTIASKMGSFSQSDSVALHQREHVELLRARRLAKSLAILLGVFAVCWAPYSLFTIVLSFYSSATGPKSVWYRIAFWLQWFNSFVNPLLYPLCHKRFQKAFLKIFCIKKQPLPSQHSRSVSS
# T3 sequence (P23975 whole entry): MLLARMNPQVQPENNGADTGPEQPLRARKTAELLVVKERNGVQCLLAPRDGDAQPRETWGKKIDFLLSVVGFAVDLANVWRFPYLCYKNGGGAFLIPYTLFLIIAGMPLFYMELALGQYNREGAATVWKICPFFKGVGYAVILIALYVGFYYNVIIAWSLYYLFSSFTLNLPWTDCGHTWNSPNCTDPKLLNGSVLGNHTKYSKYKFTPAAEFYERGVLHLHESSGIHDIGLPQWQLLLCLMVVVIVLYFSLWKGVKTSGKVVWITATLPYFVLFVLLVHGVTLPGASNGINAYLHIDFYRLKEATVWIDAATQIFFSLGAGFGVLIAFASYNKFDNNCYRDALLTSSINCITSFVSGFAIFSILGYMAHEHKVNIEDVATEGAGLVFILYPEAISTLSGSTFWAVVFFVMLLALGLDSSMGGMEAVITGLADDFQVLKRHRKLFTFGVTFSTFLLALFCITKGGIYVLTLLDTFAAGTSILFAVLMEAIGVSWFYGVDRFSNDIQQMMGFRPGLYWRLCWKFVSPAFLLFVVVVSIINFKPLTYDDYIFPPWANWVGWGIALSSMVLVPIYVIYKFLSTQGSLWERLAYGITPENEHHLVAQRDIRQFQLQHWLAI
smiles,measurement,setting,value
"C[C@]12C[C@@H](O)[C@@H]3C[C@@]1(O[C@@H]1O[C@H](CO)[C@@H](O)[C@H](O)[C@H]1O)[C@@]3(COC(=O)c1ccccc1)C(=O)O2 [albiflorin, Albiflorin]",Ki,hDAT [1],1.48 ± 0.0333 µM
same,IC50,hDAT [2],2.24 ± 0.025 µM
same,IC50,hSERT,0.00236 ± 0.00074 µM
same,IC50,hNET,0.00036 ± 8e-05 µM
same,% Inhibition of binding at 10 μM albiflorin,5-HT5A,20.11%
same,IC50,5-HT5A; [4],> 10 µM
same,% Inhibition of binding at 10 μM albiflorin,5-HT6,22.36%
same,IC50,5-HT6; [4],> 10 µM
same,% Inhibition of binding at 10 μM albiflorin,5-HT7,14.55%
same,IC50,5-HT7; [4],> 10 µM
same,% Inhibition of binding at 10 μM albiflorin,α2A,36.66%
same,IC50,α2A; [4],> 10 µM
same,% Inhibition of binding at 10 μM albiflorin,β1,63.22%
same,IC50,β1; [4],3.35 ± 0.212 µM
same,% Inhibition of binding at 10 μM albiflorin,M3,25.66%
same,IC50,M3; [4],> 10 µM
same,% Inhibition of binding at 10 μM albiflorin,μ,23.66%
same,IC50,μ; [4],> 10 µM
same,% Inhibition of binding at 10 μM albiflorin,H4,6.33%
same,IC50,H4; [4],> 10 µM
same,effect on hypothalamic 5-HT levels,"hypothalamic 5-HT levels; acute oral administration, 3.5, 7.0, 14.0 mg/kg, freely moving rats, vs vehicle",significant increase
same,time of peak 5-HT increase post administration,"hypothalamic 5-HT levels; oral, rats, microdialysis",1 h
same,effect on DA levels in the hypothalamus,[3],not elevated
